Measured values from article PMC11414412, “Design and synthesis new indole-based aromatase/iNOS inhibitors with apoptotic antiproliferative activity” (Frontiers in Chemistry, 2024).

How the values were obtained:
[1] = system: four human cancer cell lines (A-549, MCF-7, Panc-1, HT-29); assay: Antiproliferative assay, average over four cancer cell lines (GI50); type: cell-based; conditions: for IC50: Homo sapiens, average of IC50 against A-549, MCF-7, Panc-1, HT-29
Procedure: See Supplementary Appendix SA1 for more details.
(§1) 4.2.2. Assay for antiproliferative effect
To explore the antiproliferative potential of compounds propidium iodide fluorescence assay was performed using different cell lines such as Panc-1 (pancreas cancer cell line), MCF-7 (breast […]
respectively. To calculate the total nuclear DNA, a fluorescent dye (propidium iodide, PI) is used which can attach to the DNA, thus offering a quick and precise technique. PI cannot pass through the cell membrane and its signal intensity can be considered as directly proportional to quantity of cellular DNA. Cells whose cell membranes are damaged or have changed permeability are counted as dead ones. The assay was performed by seeding the cells of different cell lines at a density of […]
The medium was removed; the compounds were added to the plates at 10 μM concentrations (in 0.1% DMSO) in triplicates, followed by incubation for 48h. DMSO (0.1%) was used as control. After incubation, medium was removed followed by the addition of PI (25 μl, 50μg/mL in water/medium) to each well of the plates. At - 80 °C, the plates were allowed to freeze for 24 h, followed by thawing at 25 °C. A fluorometer (Polar-Star BMG Tech) was used to record the readings at excitation and emission wavelengths of 530 and 620 nm for each well. The percentage cytotoxicity of compounds was calculated using […]
Where ATC= Absorbance of treated cells and AC= Absorbance of control. […]
positive control in the assay.

[2] = system: Panc-1 cells; assay: Antiproliferative assay, Panc-1; type: cell-based; conditions: Homo sapiens; Panc-1 pancreatic cancer cell line; read-out: Antiproliferative activity IC50 ± SEM, Panc-1
Procedure: as §1
(§2) To explore the antiproliferative potential of compounds propidium iodide fluorescence assay was performed using different cell lines such as Panc-1 (pancreas cancer cell line), MCF-7 (breast cancer cell line), HT-29 (colon cancer cell line) and A-549 (epithelial cancer cell line), respectively. To calculate the total nuclear DNA, a fluorescent dye (propidium iodide, PI) is used which can attach to the DNA, thus offering a quick and precise technique. PI cannot pass through the cell membrane and its signal intensity can be considered as directly proportional to quantity of cellular DNA. Cells whose cell membranes are damaged or have changed permeability are counted as dead ones. The assay was performed by seeding the cells of different cell lines at a density of 3000-7500 cells/well (in200μl medium) in culture plates followed by incubation for 24h at 37 °C in humidified 5%CO2/95% air atmospheric conditions. The medium was removed; the compounds were added to the plates at 10 μM concentrations (in 0.1% DMSO) in triplicates, followed by incubation for 48h. DMSO (0.1%) was used as control. After incubation, medium was removed followed by the addition of PI (25 μl, 50μg/mL in water/medium) to each well of the plates. At - 80 °C, the plates were allowed to freeze for 24 h, followed by thawing at 25 °C. A fluorometer (Polar-Star BMG Tech) was used to record the readings at excitation and emission wavelengths of 530 and 620 nm for each well. The percentage cytotoxicity of compounds was calculated using […]
(§3) Where ATC= Absorbance of treated cells and AC= Absorbance of control. Erlotinib was used as positive control in the assay.

[3] = system: HT-29 cells; assay: Antiproliferative assay, HT-29; type: cell-based; conditions: Homo sapiens; HT-29 colon cancer cell line; read-out: Antiproliferative activity IC50 ± SEM, HT-29
Procedure: as §1, §2, §3

[4] = system: MCF-7 cells; assay: Antiproliferative assay, MCF-7; type: cell-based; conditions: Homo sapiens, MCF7; MCF-7 breast cancer cell line; read-out: Antiproliferative activity IC50 ± SEM, MCF-7
Procedure: as §1, §2, §3

[5] = Cell viability assay (MTT) on normal mammary epithelial cells; type: cell-based, human; conditions: human, MCF-10A normal mammary gland epithelial cells, MCF-10A normal cells, 4 days incubation
Procedure: This test investigates the effects of the new compounds 3–16 on normal cell lines to determine their safety. The normal human mammary gland epithelial (MCF-10 A) cell line was used to test the viability of the tested compounds. After 4 days of incubation on MCF-10 A cells within 50 µM of each investigated compound, cell viability was determined using the MTT assay ([Gomaa et al., 2020]; [Marzouk et al., 2020]).
The normal human mammary gland epithelial (MCF-10A) cell line was used to test the viability of the tested compounds. After 4 days of incubation on MCF-10A cells within 50 µM of each investigated compound, cell viability was determined using the MTT assay ([Gomaa et al., 2020]; [Marzouk et al., 2020]). Refer to Supplementary Appendix SA1 (supp. File) for more details.
4.2. Biological evaluation
4.2.1 Cell Viability assay (MTT assay)
MTT assay was performed to investigate the effect of the synthesized compounds on mammary epithelial cells (MCF-10A). The cells were propagated in medium consisting of Ham's F-12 medium/ Dulbecco's modified Eagle's medium (DMEM) (1:1) supplemented with 10% foetal calf serum, 2 mM glutamine, insulin (10 μg/mL), hydrocortisone (500 ng/mL) and epidermal growth factor (20 ng/mL). Trypsin ethylenediamine tetra acetic acid (EDTA) was used to passage the cells after every 2-3 days. 96-well flat-bottomed cell culture plates were used to seed the cells at a density of 10^4 cells mL-1. The medium was aspirated from all the wells of culture plates after 24 h followed by the addition of synthesized compounds (in 200 μL medium to yield a final concentration of 0.1% (v/v) dimethyl sulfoxide) into individual wells of the plates. Four wells were designated to a single compound. The plates were allowed to incubate at 37°C for 96 h. Afterwards, the medium was aspirated and 3-[4,5-dimethylthiazol-2-yl]-2,5-diphenyltetrazolium bromide (MTT) (0.4 mg/mL) in medium was added to each well and subsequently incubated for 3 h. The medium was aspirated and 150 μL dimethyl sulfoxide (DMSO) was added to each well. The plates were vortexed followed by the measurement of absorbance at 540 nm on a microplate reader. The results were presented as inhibition (%) of proliferation in contrast to controls comprising 0.1%

[6] = system: A-549 cells; assay: Antiproliferative assay, A-549; type: cell-based; conditions: Homo sapiens, A549; A-549 lung cancer cell line; read-out: Antiproliferative activity IC50 ± SEM, A-549
Procedure: as §1, §2, §3

[7] = molecular target: T1, aromatase (CYP19) (Homo sapiens, UniProt P11511); assay: Aromatase inhibitory assay (Gentest kit, DBF fluorometric substrate)
T1 sequence (P11511 1-503): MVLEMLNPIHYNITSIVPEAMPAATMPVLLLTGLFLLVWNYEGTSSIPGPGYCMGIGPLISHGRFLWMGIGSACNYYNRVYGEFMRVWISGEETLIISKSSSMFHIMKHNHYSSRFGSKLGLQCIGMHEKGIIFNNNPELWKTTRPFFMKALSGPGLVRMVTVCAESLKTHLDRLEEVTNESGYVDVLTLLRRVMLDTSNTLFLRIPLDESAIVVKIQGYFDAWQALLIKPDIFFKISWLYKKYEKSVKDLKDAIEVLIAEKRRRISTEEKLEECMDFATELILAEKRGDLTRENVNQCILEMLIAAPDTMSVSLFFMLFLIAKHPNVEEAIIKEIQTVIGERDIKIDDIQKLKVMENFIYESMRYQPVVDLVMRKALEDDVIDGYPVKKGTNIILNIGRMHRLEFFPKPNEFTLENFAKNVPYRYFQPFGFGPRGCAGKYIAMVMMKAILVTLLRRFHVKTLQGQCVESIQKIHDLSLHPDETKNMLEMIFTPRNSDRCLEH
Procedure: The aromatase inhibitory effect was performed using the method reported by Stressor et al.[35].
This method was carried out according to the Gentest kit using CYP19 enzyme and DBF as a
fluorometric substrate. DBF was dealkylated by aromatase and then hydrolyzed to give the
fluorescein product. Briefly, 100 μL of cofactor, containing 78.4 μL of 50 mM phosphate buffer
(pH 7.4); 20 μL of 20x NADPH-generating system (26 mM NADP+, 66 mM glucose-6-phosphate,
and 66 mM MgCl2); and 1.6 μL of 100 U/mL glucose-6-phosphate dehydrogenase, was pipetted
into a 96-well plate and preincubated in 37 °C (water bath) for 10 min. The reaction was initiated
by addition of 100 μL of enzyme/substrate mixture containing 77.3 μL of 50 mM
phosphate buffer (pH 7.4); 12.5 μL of 16 pmol/mL CYP19; 0.2 μL of 0.2 mM DBF, and 10 μL of
0.25 mM diluted tested sample or 10% DMSO as a negative control or letrozole as a positive
control. Fluorescence signal was recorded using an excitation wavelength of 490 nm and emission
Percentage of inhibition (%inhibition) was calculated
as shown in Equation (1).
assayed in triplicate. Finally, IC50 values were determined by plot of concentrations versus %

| IC50 [1] | IC50 [2] | IC50 [3] | IC50 [4] | IC50 [6] | melting point | IC50 [7] | Fold less potent than compound 12 (GI50) [1] | Compound | viability at 4 days, 50 µM [5] |
| --- | --- | --- | --- | --- | --- | --- | --- | --- | --- |
| 59 nM | 58 ± 5 nM | 60 ± 5 nM | 62 ± 5 nM | 57 ± 5 nM | – | – | – | CCc1c(C(=O)NC(C(=O)OCc2ccccc2)C(C)O)[nH]c2ccc(Cl)cc12 (stereo not shown) [Compound 3, Benzyl 2-(5-chloro-3-ethyl-1H-indol-2-carboxamido)-3-hydroxybutanoate] | 91% |
| 62 nM | 60 ± 5 nM | 64 ± 6 nM | 65 ± 6 nM | 59 ± 5 nM | – | – | – | CCc1c(C(=O)NC(C(C)=O)C(=O)OCc2ccccc2)[nH]c2ccc(Cl)cc12 (stereo not shown) [Compound 4, benzyl 2-(5-chloro-3-ethyl-1h-indol-2-carboxamido)-3-oxobutanoate] | 89% |
| 66 nM | 64 ± 6 nM | 66 ± 6 nM | 68 ± 6 nM | 65 ± 6 nM | 270 to 272 °C | – | – | CCc1c2cc(Cl)ccc2n2c(C)c(C(=O)O)[nH]c(=O)c12 [Compound 6, 8-chloro-10-ethyl-4-methyl-1-oxo-1,2-dihydropyrazino [1,2-a]indole-3-carboxylic acid] | 92% |
| 38 nM | 37 ± 3 nM | 38 ± 3 nM | 40 ± 3 nM | 37 ± 3 nM | – | 33 ± 3 nM | – | CCOC(=O)C(Cc1ccccc1)NC(=O)c1[nH]c2ccc(Cl)cc2c1CC (stereo not shown) [Compound 8, ethyl 2-(5-chloro-3-ethyl-1h-indole-2-carboxamido)-3-phenylpropanoate] | 92% |
| 49 nM | 47 ± 4 nM | 50 ± 5 nM | 50 ± 4 nM | 48 ± 4 nM | 196 to 198 °C | – | – | CCc1c2n(c3ccc(Cl)cc13)C(=O)C(Cc1ccccc1)NC2=O (stereo not shown) [Compound 9, 3-benzyl-8-chloro-10-ethyl-2,3-dihydropyrazino [1,2-a] indole-1,4-dione] | 91% |
| 54 nM | 54 ± 5 nM | 54 ± 5 nM | 56 ± 5 nM | 53 ± 5 nM | 160 to 162 °C | – | – | CCc1c2n(c3ccc(Cl)cc13)C(O)C(Cc1ccccc1)NC2=O (stereo not shown) [Compound 10, 3-benzyl-8-chloro-10-ethyl-4-hydroxy-3,4-dihydropyrazino [1,2-a] indol-1(2H)-one] | 89% |
| 41 nM | 40 ± 4 nM | 42 ± 4 nM | 43 ± 4 nM | 40 ± 4 nM | – | – | 1.7 fold | CCc1c2cc(Cl)ccc2n2cc(Cc3ccccc3)[nH]c(=O)c12 [Compound 11, 3-Benzyl-8-chloro-10-ethylpyrazino[1,2-a]indol-1(2H)-one] | 92% |
| 35 nM | 35 ± 3 nM | 34 ± 3 nM | 36 ± 3 nM | 34 ± 3 nM | 210 to 212 °C | 28 ± 2 nM | – | CCc1c(C(=O)NC(C(=O)OC)c2ccccc2)[nH]c2ccc(Cl)cc12 (stereo not shown) [Compound 13, Methyl 2-(5-chloro-3-ethyl-1h-indole-2-carboxamido)-2-phenylacetate] | 91% |
| 45 nM | 44 ± 4 nM | 46 ± 4 nM | 46 ± 4 nM | 44 ± 4 nM | 202 to 204 °C | – | – | CCc1c2n(c3ccc(Cl)cc13)C(=O)C(c1ccccc1)NC2=O (stereo not shown) [Compound 14, 8-Chloro-10-ethyl-3-phenyl-2,3-dihydropyrazino [1,2-a] indole-1,4-dione] | 90% |
| 72 nM | 72 ± 7 nM | 74 ± 7 nM | 76 ± 7 nM | 69 ± 6 nM | 213 to 215 °C | – | – | CCc1c2n(c3ccc(Cl)cc13)C(O)C(c1ccccc1)NC2=O (stereo not shown) [Compound 15, 8-Chloro-10-ethyl-4-hydroxy-3-phenyl-3,4-dihydropyrazino [1,2-a] indol-1(2H)-one] | 92% |

| Compound | IC50 [1] | IC50 [2] | IC50 [3] | IC50 [4] | IC50 [6] | melting point | IC50 [7] | Fold less potent than compound 12 (GI50) [1] | viability at 4 days, 50 µM [5] |
| --- | --- | --- | --- | --- | --- | --- | --- | --- | --- |
| C#Cc1cccc(Nc2ncnc3cc(OCCOC)c(OCCOC)cc23)c1 [Erlotinib, reference compound] | – | 30 ± 3 nM | 30 ± 3 nM | 40 ± 3 nM | 30 ± 3 nM | – | – | – | – |
